Patent US20250206754A1, “PAN-CHEMOKINE ANTAGONISTS FOR USE IN TREATING CANCER AND IMMUNE DISORDERS” ("Micar Innovation" LTD., priority 2022, published 2025)
Like-named read-outs stand apart in the source and are kept apart here.

Legend:
[1] = system: IL-8 release; details: Homo sapiens, read-out: EC50, IL8 release
Description: (§1) For this purpose a model for the inhibition of CCL2 release from IL-4, IL-13, IL-22 and IFNγ-stimulated primary human keratinocytes (Eczematous inflammation) was used and also an assay for the inhibition of IL-8 release from IL-17A and TNFα (Psoriatic inflammation). […] Finally, migration assay by MB231cell line was performed.

[2] = system: 4T-1-luc cells; assay type: in vivo; details: for bioluminescence intensity of lung: Day32 after inoculation, ex vivo; for total number of metastasis found by the ex-vivo studies: control group 10; for Metastasis on Liver, mice with metastasis / Metastasis on Liver, total number / Metastasis on Lung, mice with metastasis / Metastasis on Lung, total number / Metastasis on ribs, mice with metastasis / Metastasis on ribs, total number: ex-vivo
Description: Design of the in vivo study: A total of 44 female BALB/c mice (12 mice for maximal tolerance dose (MTD) study; 32 mice for efficacy study) were used in the 4T-1-Luc study. The animals were specific pathogen free and approximately 4-5 weeks old at the initiation of the study.
Murine breast carcinoma cells 4T-1-luc cells used in this study, were cultured in a 37° C. incubator containing 5% CO2 with 10% FBS and 2 μg/mL puromycin in RPMI1640 medium. The cells were sub-cultured within 10 passages before inoculated into the mice. 2*10^5 4T-1-luc cells suspended in 20 uL PBS were orthotopically injected into the 4th fat pat on the right side of each mouse. Before inoculation, mice were pre-anesthetized with 30 mg/kg Zoletil mixed with 10 mg/kg Xylazine and kept anesthetized with 3-4% isoflurane. Injected subcutaneously 20 mg/kg Tolfedine as painkillers once a day for 3 days. The day of cell inoculation was denoted as Day0. On Day3, 16 bearing-tumor mice were randomized into 4 groups (4 mice per group) according to body weight and BLI signal. The information of the preparation of Hit 1 dosing solution is as follow:
For 2-({6-phenylthieno[2,3-d]pyrimidin-4-yl}oxy)benzamide (Hit1, MIC5022) 5 mg/kg dose, the preparation was like that: weighed 2.5 mg of Hit 1, added in 0.50 ml of ethanol, vortex or magnetic stirring enough to mix well (all compound dissolved will be better), added in 2.00 ml of PEG400, vortex or magnetic stirring until getting a clear solution (no more than 60° C. water base ultrasonicate may be needed), added 2.50 ml of water to get clear solution. The concentration was 0.5 mg/ml, the storage condition was at 4C temperature and the preparation frequency was each 5 days.
For 2-({6-phenylthieno[2,3-d]pyrimidin-4-yl}oxy)benzamide (Hit1, MIC5022) 30 mg/kg dose, the preparation was like that: weighed 15 mg of Hit 1, added in 0.50 ml of ethanol, vortex or magnetic stirring enough to mix well (all compound dissolved will be better), added in 2.00 ml of PEG400, vortex or magnetic stirring until getting a clear solution (no more than 60° C. water base ultrasonicate may be needed), added 2.50 ml of water to get clear solution. The concentration was 3 mg/ml, the storage condition was at 4C temperature, and the preparation frequency was each 5 days.
The concentration was 15 mg/ml, the storage condition was at 4C temperature, and the preparation frequency was each 5 days.
Each mouse has been observed for changes in general appearance and behavior every day for 4 weeks after grouping. The abnormal phenomena were recorded.
Body weight: Mice were measured and recorded twice a week after grouping, and during the dose period. Animals were also weighed in the event of accidental death or near-death euthanasia. Tumor volume: The tumor volume (V) was calculated as follows: V=(length×width2)/2. Tumor volume was measured twice per week. Tumor growth inhibition (TGI), TGI=(1−(T/C)×100%; T and C as the mean tumor volumes of the treatment and control groups on the measurement day.
The individual relative tumor volume (RTV) was calculated as follows: RTV=Vt/V0, where Vt was the volume on each day, and V0 was the volume at the beginning of the treatment. IVIS imaging: We used IVIS® In Vivo Imaging Systems (PerkinElmer, Waltham, MA) which allow high sensitivity and high resolution in vivo BLI and fluorescence imaging (FLI) across a wide range of wavelengths. Animals were imaged up to five at a time under 3-4% isoflurane gas anesthesia. Each mouse has been injected with D-Luciferin and imaged 10-15 minutes after the injection. BLI signal was quantified in regions of interest (ROIs) drawn around tumors or tissues ex vivo and the signal is expressed as photons per second, representing the flux radiating omni-directionally from the user-defined region […] post grouping (Day3, Day10, Day14, Day17, Day21, Day24, Day28 and Day31).

[3] = biological target: CCR2 (Homo sapiens, UniProt P41597); experiment: β-arrestin selectivity assay, CCR2; assay type: cell-based
Sequence of CCR2 (P41597 whole entry): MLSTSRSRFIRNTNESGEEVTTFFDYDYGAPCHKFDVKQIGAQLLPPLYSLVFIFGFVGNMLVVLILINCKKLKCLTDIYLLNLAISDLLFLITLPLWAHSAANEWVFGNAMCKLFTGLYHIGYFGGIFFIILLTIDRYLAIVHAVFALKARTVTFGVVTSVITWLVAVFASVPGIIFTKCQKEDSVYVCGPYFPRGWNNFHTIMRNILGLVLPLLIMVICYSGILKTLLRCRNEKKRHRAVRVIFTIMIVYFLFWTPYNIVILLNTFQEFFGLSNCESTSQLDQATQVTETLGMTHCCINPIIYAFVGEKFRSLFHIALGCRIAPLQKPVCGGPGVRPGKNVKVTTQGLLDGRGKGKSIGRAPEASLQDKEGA

[4] = system: CCL2 release; details: Homo sapiens, Keratinocyte, read-out: EC50, CCL2 release
Description: as §1

[5] = G2 5 mg/kg, Day31 after inoculation
[6] = G3 30 mg/kg, Day31 after inoculation
[7] = G4 150 mg/kg, Day31 after inoculation

NC(=O)c1ccccc1Oc1ncnc2sc(-c3ccccc3)cc12 [Hit 1, 2-({6-phenylthieno[2,3-d]pyrimidin-4-yl}oxy)benzamide]
EC50 [1]: 733 nM | bioluminescence intensity of lung ([2]; 5 mg/kg): 1.07E+06 | total number of metastasis found by the ex-vivo studies ([2]; 5 mg/kg): 3 | bioluminescence intensity of lung ([2]; 30 mg/kg): 1.66E+06 | total number of metastasis found by the ex-vivo studies ([2]; 30 mg/kg): 2 | bioluminescence intensity of lung ([2]; 150 mg/kg): 1.56E+06 | total number of metastasis found by the ex-vivo studies ([2]; 150 mg/kg): 5 | reduction of the spread of the tumor (bioluminescence vs control) ([2]; 5, 30, 150 mg/kg, Day31): 6-10 folds | metastasis in liver and ribs ([2]; 5, 30, 150 mg/kg, ex-vivo images and manual counting): completely eliminated | reduction of metastasis development (lung bioluminescence vs control) ([2]; 5, 30 and 150 mg/kg, Day32): about five | Animal bioluminescence imaging intensity, Mean ([2]; G2 5 mg/kg p.o. QD, Day 3): 2.07E+07 10^8 p/s | Animal bioluminescence imaging intensity, Mean ([2]; G2 5 mg/kg p.o. QD, Day 10): 1.56E+08 10^8 p/s | Animal bioluminescence imaging intensity, Mean ([2]; G2 5 mg/kg p.o. QD, Day 17): 3.39E+08 10^8 p/s | Animal bioluminescence imaging intensity, Mean ([2]; G2 5 mg/kg p.o. QD, Day 21): 4.78E+08 10^8 p/s | Animal bioluminescence imaging intensity, Mean ([2]; G2 5 mg/kg p.o. QD, Day 24): 3.52E+08 10^8 p/s | Animal bioluminescence imaging intensity, Mean ([2]; G2 5 mg/kg p.o. QD, Day 28): 4.34E+08 10^8 p/s | Animal bioluminescence imaging intensity, Mean ([2]; G2 5 mg/kg p.o. QD, Day 31): 5.01E+08 10^8 p/s | bioluminescence intensity ([2]; G2 5 mg/kg, Day3 after inoculation): 0.21*10^7±0.056*10^8 p/s | tumor volume (TV) ([2]; G2 5 mg/kg, Day10 after inoculation): 86.53±6.03 mm^3 | bioluminescence intensity [2, 5]: 5.01*10^8±2.67*10^8 p/s | relative tumor volume (RTV) [2, 5]: 5.99±0.61 | tumor volume (TV) [2, 5]: 515.90±53.18 mm^3 | Metastasis on Liver, mice with metastasis ([2]; G2 (5 mg/kg)): (0/4 mice) | Metastasis on Liver, total number ([2]; G2 (5 mg/kg)): totally 0 | Metastasis on Lung, mice with metastasis ([2]; G2 (5 mg/kg)): 2/4 and (2/4 mice) | Metastasis on Lung, total number ([2]; G2 (5 mg/kg)): totally 3 | Metastasis on ribs, mice with metastasis ([2]; G2 (5 mg/kg)): (0/4 mice) | Metastasis on ribs, total number ([2]; G2 (5 mg/kg)): totally 0 | TV, RTV and TW compared with G1 ([2]; G2, G3 and G4 (5, 30, 150 mg/kg), p>0.05): no significant differences | tumor weight (TW) ([2]; G3 30 mg/kg): 0.95 ± 0.16 g | Animal bioluminescence imaging intensity, Mean ([2]; G3 30 mg/kg p.o. QD, Day 3): 2.31E+07 10^8 p/s | Animal bioluminescence imaging intensity, Mean ([2]; G3 30 mg/kg p.o. QD, Day 10): 2.71E+08 10^8 p/s | Animal bioluminescence imaging intensity, Mean ([2]; G3 30 mg/kg p.o. QD, Day 17): 1.32E+08 10^8 p/s | Animal bioluminescence imaging intensity, Mean ([2]; G3 30 mg/kg p.o. QD, Day 21): 1.30E+08 10^8 p/s | Animal bioluminescence imaging intensity, Mean ([2]; G3 30 mg/kg p.o. QD, Day 24): 2.08E+08 10^8 p/s | Animal bioluminescence imaging intensity, Mean ([2]; G3 30 mg/kg p.o. QD, Day 28): 4.49E+08 10^8 p/s | Animal bioluminescence imaging intensity, Mean ([2]; G3 30 mg/kg p.o. QD, Day 31): 3.26E+08 10^8 p/s | bioluminescence intensity ([2]; G3 30 mg/kg, Day3 after inoculation): 0.23*10^7±0.075*10^8 p/s | tumor volume (TV) ([2]; G3 30 mg/kg, Day10 after inoculation): 90.30±7.67 mm^3 | bioluminescence intensity [2, 6]: 3.26*10^8±0.89*10^8 p/s | relative tumor volume (RTV) [2, 6]: 5.33±0.64 | tumor volume (TV) [2, 6]: 489.69±85.03 mm^3 | Metastasis on Liver, mice with metastasis ([2]; G3 (30 mg/kg)): (0/4 mice) | Metastasis on Liver, total number ([2]; G3 (30 mg/kg)): totally 0 | Metastasis on Lung, mice with metastasis ([2]; G3 (30 mg/kg)): 2/4 and (2/4 mice) | Metastasis on Lung, total number ([2]; G3 (30 mg/kg)): totally 2 | Metastasis on ribs, mice with metastasis ([2]; G3 (30 mg/kg)): (0/4 mice) | Metastasis on ribs, total number ([2]; G3 (30 mg/kg)): totally 0 | RTV course ([2]; G3 group 30 mg/kg, after day 24): clear decrease in the RTV | tumor weight (TW) ([2]; G4 150 mg/kg): 1.05 ± 0.19 g | bioluminescence intensity ([2]; G4 150 mg/kg, Day3 after inoculation): 0.21*10^7±0.054*10^8 p/s | tumor volume (TV) ([2]; G4 150 mg/kg, Day10 after inoculation): 85.22±10.26 mm^3 | bioluminescence intensity [2, 7]: 5.08*10^8±2.16*10^8 p/s | relative tumor volume (RTV) [2, 7]: 5.92±0.63 | tumor volume (TV) [2, 7]: 515.66±98.37 mm^3 | Metastasis on Liver, mice with metastasis ([2]; G4 (150 mg/kg)): (0/4 mice) | Metastasis on Liver, total number ([2]; G4 (150 mg/kg)): totally 0 | Metastasis on Lung, total number ([2]; G4 (150 mg/kg)): totally 5 | Metastasis on ribs, mice with metastasis ([2]; G4 (150 mg/kg)): (0/4 mice) | Metastasis on ribs, total number ([2]; G4 (150 mg/kg)): totally 0 | Animal bioluminescence imaging intensity, Mean ([2]; Q4 150 mg/kg p.o. QD, Day 3): 2.07E+07 10^8 p/s | Animal bioluminescence imaging intensity, Mean ([2]; Q4 150 mg/kg p.o. QD, Day 10): 4.97E+07 10^8 p/s | Animal bioluminescence imaging intensity, Mean ([2]; Q4 150 mg/kg p.o. QD, Day 15): 1.33E+08 10^8 p/s | Animal bioluminescence imaging intensity, Mean ([2]; Q4 150 mg/kg p.o. QD, Day 17): 2.43E+08 10^8 p/s | Animal bioluminescence imaging intensity, Mean ([2]; Q4 150 mg/kg p.o. QD, Day 21): 2.94E+08 10^8 p/s | Animal bioluminescence imaging intensity, Mean ([2]; Q4 150 mg/kg p.o. QD, Day 24): 3.20E+08 10^8 p/s | Animal bioluminescence imaging intensity, Mean ([2]; Q4 150 mg/kg p.o. QD, Day 28): 5.27E+08 10^8 p/s | Animal bioluminescence imaging intensity, Mean ([2]; Q4 150 mg/kg p.o. QD, Day 31): 5.08E+08 10^8 p/s | death or abnormal behavior during the experiment ([2]; efficacy study, 5, 30, 150 mg/kg p.o. QD): no mice death or abnormal behavior of mice | safety conclusion ([2]; mouse, in vivo): relatively biologically safe | Hill coefficient [3]: 3.1 | IC50 [3]: 2600 nM | EC50 [4]: 411 nM
